Measured values from PubChem BioAssay (NCI).
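Five compound concentrations were applied to cells in 96-well plates for 48 hours; endpoints were derived by simple linear interpolation of the resulting dose-response curve. Abbreviation: GI50, concentration required for 50% inhibition of growth. TGI denotes the concentration required for complete inhibition of growth.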

Assays:
Test in all cases: NCI tumour cell line growth inhibition, 48 h
NCI-H460 lung = tested on: NCI-H460 lung
COLO 205 colon = tested on: COLO 205 colon
SW-620 colon = tested on: SW-620 colon
NCI-H226 lung = tested on: NCI-H226 lung
SK-MEL-28 melanoma = tested on: SK-MEL-28 melanoma
T-47D breast = tested on: T-47D breast
OVCAR-5 ovarian = tested on: OVCAR-5 ovarian
SK-MEL-2 melanoma = tested on: SK-MEL-2 melanoma
OVCAR-3 ovarian = tested on: OVCAR-3 ovarian
BT-549 breast = tested on: BT-549 breast
MALME-3M melanoma = tested on: MALME-3M melanoma
SR leukemia = tested on: SR leukemia
HL-60(TB) leukemia = tested on: HL-60(TB) leukemia

Row | Structure (SMILES) | TGI (NCI-H460 lung) [µM] | TGI (COLO 205 colon) [µM] | TGI (SW-620 colon) [µM] | TGI (NCI-H226 lung) [µM] | TGI (SK-MEL-28 melanoma) [µM] | TGI (T-47D breast) [µM] | TGI (OVCAR-5 ovarian) [µM] | TGI (SK-MEL-2 melanoma) [µM] | TGI (OVCAR-3 ovarian) [µM] | TGI (BT-549 breast) [µM] | TGI (MALME-3M melanoma) [µM] | TGI (SR leukemia) [µM] | TGI (HL-60(TB) leukemia) [µM] | GI50 (NCI-H226 lung) [µM] | GI50 (SR leukemia) [µM]
1 | CC[C@H]1OC([C@H](O)C/C=C\C#C[Si](C)(C)C)C/C=C\C[C@H]1O[Si](C)(C)C(C)(C)C (stereo partly drawn) | > 100 | > 100 | > 100 | > 100 | > 100 | > 100 | > 100 | > 100 | > 100 | > 100 | > 100 | > 100 | – | – | –
2 | COc1ccc(CCNC(=O)Cc2cc(OC)c(OC)cc2CO)cc1OC | > 100 | > 100 | > 100 | > 100 | > 100 | > 100 | > 100 | > 100 | > 100 | > 100 | – | > 100 | > 100 | – | –
3 | C[Si](C)(OCCS(=O)(=O)O)C1S(=O)(=O)OCCOS1(=O)=O | > 100 | > 100 | > 100 | > 100 | > 100 | > 100 | > 100 | – | > 100 | > 100 | > 100 | > 100 | > 100 | – | –
4 | N/C(=N/n1c(=S)[nH]c2ccccc2c1=O)Nn1c(=S)[nH]c2ccccc2c1=O | > 100 | 77.6 | 38.6 | 79 | 72.6 | 66.3 | > 100 | > 100 | > 100 | 55.4 | 45.6 | 52 | – | – | –
5 | COCCOCCOC1=C(Cl)C(=O)c2c(O)ccc(O)c2C1=O | 29.8 | 2.45 | 0.562 | 35.4 | 5.12 | 6.64 | 22.6 | 4.86 | 3.19 | 4.01 | 3.34 | 3.04 | 1.89 | – | –
6 | Cc1nc2c(sc3nc4ccccc4n32)c(=O)[nH]1 | – | > 100 | > 100 | > 100 | > 100 | > 100 | > 100 | > 100 | > 100 | > 100 | > 100 | > 100 | – | – | –
7 | Brc1ccc2[nH]cc(-c3nc(-c4c[nH]c5ccccc45)cs3)c2c1 | 4.9 | 2.76 | 13.3 | 8.13 | 20.9 | 31.7 | 5.37 | 8.43 | 15.5 | 23.4 | 9.39 | > 100 | 16.1 | – | –
8 | Cc1cccc2c1NC(=S)[C@@H]1CCCN1C2=O | > 100 | > 100 | > 100 | > 100 | > 100 | > 100 | > 100 | > 100 | > 100 | > 100 | > 100 | > 100 | – | – | –
9 | COc1ccc(-c2cc(-c3cc(OC)c(OC)c(OC)c3)cc(-c3cc4ccccc4oc3=O)n2)cc1 | 17.8 | > 100 | > 100 | 22.2 | – | 26 | – | 62.2 | 68.3 | 27.8 | 23.9 | > 100 | > 100 | – | –
10 | C=CC[C@H](C)CCC(=O)N1[C@H]2CC3CC[C@@]2(CS1(=O)=O)C3(C)C | > 100 | > 100 | > 100 | > 100 | > 100 | > 100 | > 100 | > 100 | – | > 100 | > 100 | > 100 | 57.3 | – | –
11 | C#C[C@]1(O)CC[C@H]2[C@@H]3CCc4cc(OC(=O)c5cccc6cc7ccccc7nc56)ccc4[C@H]3CC[C@@]21C | > 100 | 43.7 | > 100 | > 100 | > 100 | 34 | > 100 | > 100 | 63 | > 100 | 34.7 | > 100 | > 100 | – | –
12 | CCC1C(c2cc(OC)c(OC)c(OC)c2)c2cc3c(cc2OC1N1CCOCC1)OCO3 (stereo not drawn) | 12.3 | 22.4 | 10.3 | 27.6 | – | 61.8 | 15.6 | > 100 | 18.7 | 22 | 52.6 | > 100 | – | – | –
13 | CSc1ccc(/C=C2\N=C(c3ccccc3)N(c3nc4ccc(Sc5ccccc5)cc4[nH]3)C2=O)cc1 | 61.3 | 30.9 | 52.5 | > 83.1 | 51.8 | 60.6 | 83.7 | 37 | 35.9 | 50.1 | > 58.5 | > 87.5 | 49.4 | 20.6 | 13.7
14 | COc1cc2c(c(OC)c1OC)-c1ccc(SC)cc1[C@H](OC(=O)c1ccccc1)CC2 | > 100 | 0.446 | > 100 | 0.634 | > 100 | > 100 | > 100 | > 100 | > 100 | > 100 | – | > 100 | 0.487 | – | –
15 | COc1ccc(N=C(Nc2ccc(OC)cc2)C(=Nc2ccc(OC)cc2)Nc2ccc(OC)cc2)cc1 | > 100 | > 100 | > 100 | > 100 | > 100 | > 100 | > 100 | > 100 | > 100 | > 100 | > 100 | > 100 | > 100 | – | –
16 | COc1ccc2c(c1)c1c(n2CCN2CCCCC2)-c2ccccc2CC1 | 28.3 | 29.5 | 37.8 | 19.3 | 38.5 | 35.6 | 31.2 | 29.3 | 33.8 | 41.5 | 28.3 | 42.4 | – | – | –
17 | Cc1cc2c(c(C=NCc3ccccc3)c1)OC1(C=C2)Oc2ccccc2C(=O)N1C (stereo not drawn) | 55.4 | 39.8 | > 100 | 42.9 | > 100 | 45.9 | 56 | 62.6 | > 100 | 62.5 | – | 49.9 | 60.2 | – | –
18 | S=C1N=C(Cl)C2(NN1)c1ccccc1-c1ccccc12 | > 10 | > 10 | > 10 | > 10 | > 10 | > 10 | – | – | – | > 10 | > 10 | > 10 | > 10 | – | –
